Assay results: US20110040086A1, “Novel Beta-Lactam Antibiotics, Methods for Their Production, and Their Use” (DRITTE PATENTPORTFOLIO BETEILIGUNGSGESELLSCHAFT MB, priority 2007, published 2011)

Key:
[1] = tested on: Enterococcus faecalis 769; experiment: agar diffusion test (Test System II, multi-resistant germs); type: cell-based; parameters: key: r = resistant (no detectable zone of inhibition)
Description: (§1) The test substances are deposited in stepped quantities (10 μg, 50 μg, 100 μg) onto active ingredient carriers (sensi-discs). For this purpose, the test substances are dissolved in methanol or A. dest. according to their solubility. Each inoculated plate is fitted with 3 test sheets.
(§2) Test System II (Effect Against Multi-Resistant Germs)
(§3) For this purpose, bacteria is cultivated on Müller-Hinton-Agar II plates.
(§4) With 1-1.5 ml physiological saline solution, a bacteria suspension of McFarland 0.5 (corresponds to a bacteria density of 150×10^6 germs) is produced. Then, with a sterile glass rod, a small drop of bacteria suspension is placed on the Müller-Hinton-Agar plate and coated in three layers (vertical, horizontal, and transverse). Thereafter, the sensi-discs with the novel semi-synthetic test substances are placed on top. The fitted plates are incubated for 18-20 hours at 37° C. After incubation, the diameters of the zones of inhibition are read as a measure for the antimicrobial activity of the novel semi-synthetic test substances.

[2] = tested on: Staphylococcus aureus 315; experiment: as above; type: cell-based; parameters: key: r = resistant (no detectable zone of inhibition)
Description: as §1, §2, §3, §4

S. aureus 36881 = experiment: as above; type: cell-based, Staphylococcus aureus; parameters: key: r = resistant (no detectable zone of inhibition)
Description: as §1, §2, §3, §4

S. aureus 520 = experiment: as above; type: cell-based, Staphylococcus aureus; parameters: key: r = resistant (no detectable zone of inhibition)
Description: as §1, §2, §3, §4

[3] = tested on: S. aureus North Germany strain; experiment: as above; type: cell-based, Staphylococcus aureus; parameters: key: r = resistant (no detectable zone of inhibition)
Description: as §1, §2, §3, §4

S. aureus 38418 = experiment: as above; type: cell-based, Staphylococcus aureus
Description: as §1, §2, §3, §4

S. aureus ATCC 6538 = experiment: as above; type: cell-based, Staphylococcus aureus
Description: as §1, §2, §3, §4

S. epidermidis 847 = experiment: as above; type: cell-based, Staphylococcus epidermidis; parameters: key: r = resistant (no detectable zone of inhibition)
Description: as §1, §2, §3, §4

S. epidermidis 125 = experiment: as above; type: cell-based, Staphylococcus epidermidis
Description: as §1, §2, §3, §4

[4] = tested on: Staphylococcus aureus ATCC 6538; experiment: mouse infected with Staphylococcus aureus infection model (survival); type: in vivo, BALB/c mice; details: 2 × 1.0 mg (50 mg/kg) i.p.
Description: Method for Effectiveness In Vivo with the Mouse Infected with Staphylococcus aureus Model
On Day 0, at least 3 BALB/c mice per test substance (Table 8) or controls are pretreated with cyclophosphamide (250 mg/kg) in 250 μl PBS inta peritoneal (i.p.).
On Day 2, the animals again received 100 mg/kg i.p.
On Day 2, a colony of the test germ is transferred from a growing agar plate (Müller-Hinton-Agar, Beckton Dickinson) into a flask with 10 ml CASO broth (CASO-B., Soyabean peptone-Casein peptone broth, SIFIN, 30 g/l) and is cultivated overnight at 37° C. and a shaking frequency of 250 rpm.
On Day 3, the pre-culture (Vk) is diluted 1:50 with CASO-B and further cultivated ca. 2 hours until an extinction in the medium of 0.6 at a wavelength of 550 nm is reached. Then, it is grown 1× with PBS at room temperature and set again to an extinction of 0.6.
At least 3 animals for a test substance or controls are infected with 10 μl/g body weight grown germs of a bacteria suspension with the extinction 0.6 (ca. 10^10-10^12 CFU, Colony forming units) i.p.
After 30 minutes, antibiotic solution is injected into the mice in a volume of 200 μl PBS with 3% DMSO i.p. 6 hours later, the second antibiotic injection is performed at the same concentration. […]

3-chlorine-7-[2-(2-carbamoyl-3,6-dioxocyclohexa-1,4-dienylamino)-2-phenyl-acetylamino]-8-oxo-5-aza-bicyclo[4.2.0]oct-3-ene-4-carboxylic acid [1n]
Diameter of zone of inhibition ([1]; Quantity n 0.019): r
Diameter of zone of inhibition ([1]; Quantity n 0.096): r
Diameter of zone of inhibition ([1]; Quantity n 0.19): r
Diameter of zone of inhibition ([2]; Quantity n 0.019): r
Diameter of zone of inhibition ([2]; Quantity n 0.096): r
Diameter of zone of inhibition ([2]; Quantity n 0.19): 12 mm
Diameter of zone of inhibition (S. aureus 36881; Quantity n 0.019): r
Diameter of zone of inhibition (S. aureus 36881; Quantity n 0.096): r
Diameter of zone of inhibition (S. aureus 36881; Quantity n 0.19): 8 mm
Diameter of zone of inhibition (S. aureus 520; Quantity n [mol] 0.019): r
Diameter of zone of inhibition (S. aureus 520; Quantity n [mol] 0.096): r
Diameter of zone of inhibition (S. aureus 520; Quantity n [mol] 0.19): 8 mm
Diameter of zone of inhibition ([3]; Quantity n 0.019): r
Diameter of zone of inhibition ([3]; Quantity n 0.096): r
Diameter of zone of inhibition ([3]; Quantity n 0.19): 14 mm
Diameter of zone of inhibition (S. aureus 38418; Quantity n [mol] 0.019): 14 mm
Diameter of zone of inhibition (S. aureus 38418; Quantity n [mol] 0.096): 26 mm
Diameter of zone of inhibition (S. aureus 38418; Quantity n [mol] 0.19): 30 mm
Diameter of zone of inhibition (S. aureus ATCC 6538; Quantity n 0.019): 22 mm
Diameter of zone of inhibition (S. aureus ATCC 6538; Quantity n 0.096): 28 mm
Diameter of zone of inhibition (S. aureus ATCC 6538; Quantity n 0.19): 32 mm
Diameter of zone of inhibition (S. epidermidis 847; Quantity n [mol] 0.019): r
Diameter of zone of inhibition (S. epidermidis 847; Quantity n [mol] 0.096): 16 mm
Diameter of zone of inhibition (S. epidermidis 847; Quantity n [mol] 0.19): 20 mm
Diameter of zone of inhibition (S. epidermidis 125; Quantity n 0.019): 14 mm
Diameter of zone of inhibition (S. epidermidis 125; Quantity n 0.096): 22 mm
Diameter of zone of inhibition (S. epidermidis 125; Quantity n 0.19): 26 mm
Survival/tested mice n/n [4]: 3/3
